Each compound was assayed against T1, human PARD-1 (Poly (ADP-Ribose) Polymerase-1) (Homo sapiens, UniProt P09874) (assay: Poly (ADP-Ribose) Polymerase-1 in vitro enzyme assay (Universal Colorimetric Assay Kit, Trevigen)). Details: letter codes; read-out: extent of inhibition of PARP activity (IC50, micromolar).
T1 construct: purchased Trevigen Inc., Gaithersburg, Md
Type: biochemical
Description: Poly (ADP-Ribose) Polymerase-1 (PARD-1) In Vitro Enzyme Assay: Compounds were screened for inhibitory activity against human PARD-1 in vitro using the Universal Colorimetric PARD Assay Kit (Trevigen Inc., Gaithersburg, Md.) as directed by the supplier. Compounds are assayed in duplicate in 0.5% DMSO final concentration, negative control is no enzyme, while positive control is DMSO vehicle alone. IC50 determinations are made using Microsoft Excel. For all cell assays, compounds are added to cells in 5% DMSO/PBS for a final concentration of 0.5% DMSO.

T1 sequence (P09874 whole entry): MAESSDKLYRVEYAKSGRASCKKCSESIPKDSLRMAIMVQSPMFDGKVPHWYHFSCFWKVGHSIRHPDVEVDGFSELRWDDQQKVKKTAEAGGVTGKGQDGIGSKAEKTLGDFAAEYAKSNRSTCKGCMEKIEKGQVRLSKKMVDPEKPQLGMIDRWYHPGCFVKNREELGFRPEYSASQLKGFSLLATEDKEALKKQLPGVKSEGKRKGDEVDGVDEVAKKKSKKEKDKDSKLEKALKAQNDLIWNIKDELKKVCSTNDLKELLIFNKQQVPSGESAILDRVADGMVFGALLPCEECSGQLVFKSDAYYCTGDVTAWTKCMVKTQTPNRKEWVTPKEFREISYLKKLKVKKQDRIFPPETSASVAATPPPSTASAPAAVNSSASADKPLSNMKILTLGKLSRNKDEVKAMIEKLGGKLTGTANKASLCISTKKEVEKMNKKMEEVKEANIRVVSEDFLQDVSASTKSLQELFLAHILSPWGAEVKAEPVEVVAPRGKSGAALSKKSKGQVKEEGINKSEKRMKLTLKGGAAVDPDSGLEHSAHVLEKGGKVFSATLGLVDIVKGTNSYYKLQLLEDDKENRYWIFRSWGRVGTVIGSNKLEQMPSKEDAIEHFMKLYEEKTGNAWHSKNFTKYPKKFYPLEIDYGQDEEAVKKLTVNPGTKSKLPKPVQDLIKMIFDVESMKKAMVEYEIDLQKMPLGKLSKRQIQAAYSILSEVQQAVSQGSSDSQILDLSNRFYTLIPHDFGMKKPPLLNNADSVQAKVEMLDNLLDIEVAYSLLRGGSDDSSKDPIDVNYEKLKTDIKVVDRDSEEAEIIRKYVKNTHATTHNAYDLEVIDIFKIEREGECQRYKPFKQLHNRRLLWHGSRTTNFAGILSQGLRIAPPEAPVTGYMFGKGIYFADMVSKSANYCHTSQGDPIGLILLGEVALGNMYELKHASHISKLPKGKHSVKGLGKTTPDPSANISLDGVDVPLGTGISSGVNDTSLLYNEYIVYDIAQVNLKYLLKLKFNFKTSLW

| Structure (SMILES) | IC50 |
| --- | --- |
| CN1CCN(c2ccc(-c3n[nH]c(=O)c4ccccc34)cc2NC(=O)C(C)(C)C)CC1 [N-(2-(4-methylpiperazin-1-yl)-5-(4-oxo-3,4-dihydrophthalazin-1-yl)phenyl)pivalamide] | > 5 µM |
| CN1CCN(c2ccc(-c3n[nH]c(=O)c4ccccc34)cc2NC(=O)NC(=O)c2ccccc2)CC1 [N-(2-(4-methylpiperazin-1-yl)-5-(4-oxo-3,4-dihydrophthalazin-1-yl)phenylcarbamoyl)benzamide] | 0.1 to 1 µM |
| CC(=O)Nc1cc(-c2n[nH]c(=O)c3ccccc23)ccc1N1CCN(C(C)(C)C)CC1 [N-(2-(4-tert-butylpiperazin-1-yl)-5-(4-oxo-3,4-dihydrophthalazin-1-yl)phenyl)acetamide] | 1 to 5 µM |
| CC(C)(C)C(=O)Nc1cc(-c2n[nH]c(=O)c3ccccc23)ccc1N1CCN(C(C)(C)C)CC1 [N-(2-(4-tert-butylpiperazin-1-yl)-5-(4-oxo-3,4-dihydrophthalazin-1-yl)phenyl)pivalamide] | > 5 µM |
| COC(=O)C(=O)Nc1cc(-c2n[nH]c(=O)c3ccccc23)ccc1N1CCN(C)CC1 [methyl 2-(2-(4-methylpiperazin-1-yl)-5-(4-oxo-3,4-dihydrophthalazin-1-yl)phenylamino)-2-oxoacetate] | 0.1 to 1 µM |
| CC(C)(C)OC(=O)CN1CCN(c2ccc(-c3n[nH]c(=O)c4ccccc34)cc2N)CC1 [tert-butyl 2-(4-(2-amino-4-(4-oxo-3,4-dihydrophthalazin-1-yl)phenyl)piperazin-1-yl)acetate] | 0.1 to 1 µM |

From US20110098304A1, “Small molecule inhibitors of PARP activity” (priority 2009, published 2011)
